Test results taken from patent US20040023990A1, “Use of pyrazolo[4,3-d]pyrimidines” (priority 2000, published 2004).

melting point: 178 °C
Compound: CCCc1nn(C)c2c(NCc3ccc(OC)c(Cl)c3)nc(CCC(=O)O)nc12 [Example 2, 3-[7-(3-chloro4-methoxybenzylamino)-1-methyl-3-propyl-1H-pyrazolo-[4,3-d]pyrimidin-5-yl]propionic acid]
